Test results: publication PMC2678990, “Stilbene glycosides are natural product inhibitors of FGF-2-induced angiogenesis” (BMC Cell Biology, 2009)

What was measured:
HDMEC [1] = test: Toxicity: MTT and active caspase-3 assays; type: cell-based, human; settings: HDMEC; MTT 72 h and active caspase-3 24 h; staurosporine positive control
Experimental: (§1) Stilbene glycoside toxicity was determined using the MTT and active caspase-3 assays. BAECs or HDMECs (7.5 × 10^3) were seeded in a 96 well plate and incubated for 4 h to allow cell adhesion. The test compound or staurosporine (1 μM), an inducer of active caspase-3 and therefore of apoptosis was added to the wells. Control cells were treated with PBS and the plate was incubated at room temperature for 72 hours. MTT reagent (10 μl) was added followed by incubation at room temperature for 2–4 h. When a purple precipitate was visible, detergent reagent (100 μl) was added to the plates and incubated at room temperature for 2 h in the dark. Absorbance was measured at 570 nm using a microplate reader.
In the apoptosis assay, HDMECs or BAEC (4 × 10^4/ml) in complete medium were added to the chambers slide and allowed to adhere for 24 h. The test compound (X μM) or staurosporine (1 μM) were added to all wells except control (PBS) and incubated for 24 hours. Wells treated with staurosporine were immediately washed (PBS) and fixed (4% paraformaldehyde) when cell morphology became round (2–4 h). After washing and fixing, cells were permeablized (0.1% Triton X-100; 10 min), washed (× 5~5 min each), air dried and blocked with 1% BSA in 1:50 TBS-Tween for 1 h at room temperature. Cells were incubated with goat anti-active caspase-3 (R&D system, UK; 1% BSA in TBS-Tween) for 1 h. […]

BAEC [2] = test: Toxicity: MTT and active caspase-3 assays; type: cell-based, bovine; settings: MTT 72 h and active caspase-3 24 h, staurosporine 1.0-1.4 μM positive control
Experimental: Figure 2 The effect of compounds 1 and 2 on BAEC viability. The cytotoxic effect was determined using (A) The MTT assay; cells (7.5 × 10^3) were incubated with the test compounds or with staurosporine (1.4 μM) an inducer of active caspase-3 and of apoptosis for 72 h and MTT added. The absorbance was read at 570 nm. (B) Active-caspase-3 apoptosis assay: cells (4.0 × 10^4/ml) were incubated with the test compounds or with staurosporine (1.0 μM, 24 h) and stained with anti-active caspase-3 as described below. Experiments were performed in triplicate. Representative immunofluorescence photomicrographs for BAEC were taken as described below. A group of apoptotic cells are highlighted in II.
as §1, with “reader. […]” for “reader.”

HDMEC [3] = test: FGF-2 invasion in Matrigel; type: cell-based, human; settings: FGF-2 treated
phospho-ERK1/2 in BAEC = test: Western blot of ERK1/2 phosphorylation; type: cell-based, bovine; settings: FGF-2 addition
Experimental: Figure 9 (A) Western blots of p-ERK-1 and -2 were performed on BAEC treated with compound 1 as described below. (B) The bar charts show relative protein expression compared to the control given an arbitrary value of 1.0. All experiments were performed at least twice and a representative example is shown. Lane 1 control, lane 2 FGF-2 (25 ng/ml), lane 3 compound 1 ([…]), lane 4 compound 1 (14.3 μM) + FGF-2, lane 5 compound 1 (28.6 μM), lane 6 compound 1 (28.6 μM) + FGF-2.
The method is described in detail elsewhere. In brief, cells were lysed in RIPA buffer, protein concentration determined using the Biorad assay, and approximately 20 μg aliquots separated by 12% SDS-PAGE, electroblotted onto nitrocellulose filters (Hoefer, San Francisco, Ca, USA), blocked overnight with 1% BSA in TBS-Tween and incubated for 4 h at RT with characterised antibodies to phosphor-ERK1/2 (AutogenBioclear, mouse monoclonal, 1:1000). α-Actin (Sigma, UK; 1:1000) was used as a loading control. Filters were washed in TBS-Tween and stained with antibodies to peroxidase-conjugated secondary antibody. Proteins were detected with the ECL system (Amersham, UK). Protein expression was estimated spectrophotometrically from band intensity. Results are semi-quantitative and given a numerical value compared to the weakest observed band assigned an arbitrary value of 1.0. […]

[4] = system: chick chorioallantoic membrane; test: Chick chorioallantoic membrane (CAM) assay; type: in vivo; settings: FGF-2 (25 ng) alone
Experimental: The angiogenic activity of test compounds was determined using the semi-quantitative chick chorioallantoic assay (CAM) as described previously. To expose the CAM a window was created in the shells of 4 day-old chicken eggs. […] […] This approach enabled calculation of an accumulated response in each group. To photograph the membrane, 2 cm^3 of a 50% emulsion of aqueous paraffin oil containing 2% Tween-80 was injected at the site of application and photographed using a Leitz dissecting microscope. Each experiment was performed five times and statistical significance was determined by the Mann-Whitney U test and the data is expressed as a median value (m).

HDMEC [5] = test: FGF-2-induced tube formation in Matrigel; type: cell-based, human; settings: FGF-2 25 ng/ml
Experimental: (§2) Cells (1.0 × 10^6/ml) were mixed with an equal volume of Matrigel (Becton -Dickinson, Oxford, UK; prepared according to the supplier's instructions) at 4°C. Aliquots (80 μl) were added to the wells of a 48-well plate and allowed to polymerise (1 h) then 500 μl of 15% FCS containing FGF-2 (25 ng/ml; or other growth factors), with or without test compounds was added. The cells were incubated for 24 h at 37°C then fixed in 4% paraformaldehyde (5 min), washed in cold ethanol and the plate air dried. Cells were stained with Geimsa (30 s), air dried and photographed. Ten random fields were selected and the number of closed tubes counted.

BAEC [6] = test: FGF-2-induced tube formation in Matrigel; type: cell-based, bovine; settings: FGF-2 25 ng/ml
Experimental: as §2

BAEC [7] = test: FGF-2 invasion in Matrigel; type: cell-based, bovine; settings: FGF-2 treated
Experimental: The effect of the test compounds on cell invasion was investigated using a Transwell Boyden chamber system coated with reconstituted growth factor-depleted Matrigel. […] Representative photomicrographs for the effect of compound 1 are shown (Figure 7B).
Figure 7 The effect of compounds 1 (AI) and 2 (AII) on BAEC invasion into a Matrigel layer was studied using the chemoinvasion assay described below. Cells (1.7 × 10^4) were added to the Matrigel coated upper Boyden chamber and the compounds with or without FGF-2 added to the lower chamber. Cell invasion was measured after 24 h and assessed as described below. […] Results are the mean of three experiments. (B) Representative photomicrographs are shown for the effect of compound 1 on BAEC (original magnification × 20).
The procedure described above was repeated and wells having a uniform network of tubes were used to assess invasion into a second layer of Matrigel. Matrigel (100 μl), with and without the test compounds was added to the cells and allowed to polymerise (1 h at 37°C). FCS (15%) was added and the cells incubated for 24–72 h when tube growth into the upper layer was measured as described above.

human umbilical vein ECs = system: human umbilical vein ECs; design: method as in PMID 11092574; settings: cited from earlier work

## CN[C@@H]1C[C@H]2O[C@@](C)([C@@H]1OC)n1c3ccccc3c3c4c(c5c6ccccc6n2c5c31)C(=O)NC4 [staurosporine, reference compound]
HDMEC [1]
  Cytotoxic effect: significant cytotoxicity
BAEC [2]
  Cytotoxic effect: significant cytotoxicity

## FGF-2: fibroblast growth factor-2, pro-angiogenic growth factor used as stimulus
HDMEC [3]
  Increase in migration into a second layer of Matrigel: 3.0 fold
phospho-ERK1/2 in BAEC
  Increase in ERK1/2 phosphorylation compared to the control: 50%
[4]
  Degree of angiogenesis (m), median score: 3
HDMEC [5]
  Increase in differentiation into capillary-like structures: approximately 4.0 fold
BAEC [6]
  Increase in differentiation into capillary-like structures: approximately 4.0 fold
BAEC [7]
  Increase in migration into a second layer of Matrigel: 3.2 fold

## Oc1ccc(/C=C/c2cc(O)cc(O)c2)cc1 [resveratrol]
Human umbilical vein ECs
  Concentrations inhibiting differentiation into capillary-like structures: 0.1 to 1 mM
